Experimental data as given in ChEMBL document CHEMBL4304741, “Modification and Biological Evaluation of a Series of 1,5-Diaryl-1,2,4-triazole Compounds as Novel Agents against Pancreatic Cancer Metastasis through Targeting Myoferlin” (J Med Chem, 2019).
pIC50: −log10 of the molar value. Active and inactive are the calls of the source. The rule behind the calls is not given here.

Experiments:
[1] = Toxicity in Balb/c nude mouse xenografted with PANC1 cells assessed as pathological changes in kidney at 25 to 50 mg/kg/day, ip by H and E staining-based microscopic analysis; type: organism-based; conditions: in vivo
Cytochrome P450 1A2 = target: T1, Cytochrome P450 1A2 (Homo sapiens, UniProt P05177); assay: Inhibition of CYP1A2 in human liver microsomes using phenacetin as substrate preincubated for 5 mins followed by NADPH-generating system addition and measured after 20 mins by LC-MS/MS analysis
T1 sequence (P05177 whole entry): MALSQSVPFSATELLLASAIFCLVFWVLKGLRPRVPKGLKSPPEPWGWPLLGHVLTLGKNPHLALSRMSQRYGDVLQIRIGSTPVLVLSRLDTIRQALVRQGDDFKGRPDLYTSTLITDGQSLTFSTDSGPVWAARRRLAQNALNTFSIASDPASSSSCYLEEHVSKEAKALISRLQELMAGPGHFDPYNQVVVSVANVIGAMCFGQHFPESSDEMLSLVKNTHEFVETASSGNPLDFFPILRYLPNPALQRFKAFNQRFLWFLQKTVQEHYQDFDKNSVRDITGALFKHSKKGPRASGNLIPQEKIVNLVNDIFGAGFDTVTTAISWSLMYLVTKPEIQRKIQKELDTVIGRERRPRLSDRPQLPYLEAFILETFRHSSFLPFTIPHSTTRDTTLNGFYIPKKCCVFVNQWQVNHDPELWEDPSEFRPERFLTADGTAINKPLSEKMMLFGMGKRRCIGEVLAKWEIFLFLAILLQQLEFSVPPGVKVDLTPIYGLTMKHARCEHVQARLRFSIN

Cytochrome P450 3A4 = Cytochrome P450 3A4 (Homo sapiens, UniProt P08684); assay: Inhibition of CYP3A4 in human liver microsomes using midazolam as substrate preincubated for 5 mins followed by NADPH-generating system addition and measured after 20 mins by LC-MS/MS analysis
Cytochrome P450 2D6 = Cytochrome P450 2D6 (Homo sapiens, UniProt P10635); assay: Inhibition of CYP2D6 in human liver microsomes using tolbutamide as substrate preincubated for 5 mins followed by NADPH-generating system addition and measured after 20 mins by LC-MS/MS analysis
MCF-10A = assay: Cytotoxicity against human MCF10A cells assessed as reduction in cell viability measured after 48 hrs by MTS assay; type: cell-based
Myoferlin [2] = target: T2, Myoferlin (Homo sapiens, UniProt Q9NZM1); assay: Inhibition of MYOF in human PANC1 cells assessed as reduction in phospho-VEGFR2 level by Western blot analysis; type: cell-based
Cytochrome P450 2B6 = target: T3, Cytochrome P450 2B6 (Homo sapiens, UniProt P20813); assay: Inhibition of CYP2B6 in human liver microsomes using bupropion as substrate preincubated for 5 mins followed by NADPH-generating system addition and measured after 20 mins by LC-MS/MS analysis
T3 sequence (P20813 whole entry): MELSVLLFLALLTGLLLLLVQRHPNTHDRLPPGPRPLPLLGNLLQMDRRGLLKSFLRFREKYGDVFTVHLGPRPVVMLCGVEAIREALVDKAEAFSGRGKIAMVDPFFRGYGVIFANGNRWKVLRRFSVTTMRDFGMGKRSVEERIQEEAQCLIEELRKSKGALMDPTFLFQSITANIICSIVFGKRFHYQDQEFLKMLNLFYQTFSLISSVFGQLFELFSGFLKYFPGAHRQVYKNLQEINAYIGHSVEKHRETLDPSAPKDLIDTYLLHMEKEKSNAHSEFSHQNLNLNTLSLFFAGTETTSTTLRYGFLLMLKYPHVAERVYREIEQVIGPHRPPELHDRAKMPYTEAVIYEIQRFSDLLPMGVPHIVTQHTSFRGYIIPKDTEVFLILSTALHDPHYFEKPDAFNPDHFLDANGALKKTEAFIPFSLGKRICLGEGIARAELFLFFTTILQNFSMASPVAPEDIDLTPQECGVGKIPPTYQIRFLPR

PANC-1 [3] = assay: Antimetastatic activity against human PANC1 cells harboring luciferase reporter gene xenografted in Balb/c nude mouse assessed as mouse survival at 25 mg/kg/day, ip (reference value: 25%); type: functional; conditions: PANC-1, ip
[4] = Toxicity in Balb/c nude mouse xenografted with PANC1 cells assessed as pathological changes in heart at 25 to 50 mg/kg/day, ip by H and E staining-based microscopic analysis; type: organism-based; conditions: in vivo
PANC-1 [5] = assay: Antimetastatic activity against human PANC1 cells harboring luciferase reporter gene xenografted in Balb/c nude mouse assessed as reduction in lung metastasis burden by measuring reduction in luminescence at 50 mg/kg/day, ip measured every 10 days by bioluminescence imaging analysis relative to control; type: functional
MIA PaCa-2 = assay: Cytotoxicity against human MIAPaCa2 cells assessed as reduction in cell viability measured after 48 hrs by MTS assay; type: cell-based; conditions: MIA PaCa-2, 48 h
PANC-1 [6] = assay: Antiinvasive activity against human PANC1 cells measured after 18 hrs in presence of mitomycin C using crystal violet staining by inverted microscopy-based matrigel coated transwell assay; type: functional, cell-based; conditions: PANC-1, 18 h
PANC-1 [7] = assay: Effect on Snail1 expression in human PANC1 cells up to 400 nM by Western blot analysis; type: functional, cell-based
Myoferlin [8] = target: T2, Myoferlin; assay: Inhibition of MYOF in human PANC1 cells assessed as reversal of epithelial-mesenchymal transition by measuring up regulation of E-cadherin expression up to 400 nM by Western blot analysis; type: cell-based
[9] = Toxicity in Balb/c nude mouse xenografted with PANC1 cells assessed as body weight loss at 25 to 50 mg/kg/day, ip; type: organism-based; conditions: in vivo
PANC-1 [10] = assay: Antimigratory activity against human PANC1 cells measured after 18 hrs in presence of mitomycin C using crystal violet staining by inverted microscopy-based transwell assay; type: functional, cell-based
PANC-1 [11] = assay: Effect on MMP1 secretion in MYOF-knockout human PANC1 cells up to 400 nM by Western blot analysis; type: functional, cell-based
PANC-1 [12] = assay: Effect on MMP2 secretion in MYOF-knockout human PANC1 cells up to 400 nM by Western blot analysis; type: functional, cell-based
Myoferlin [13] = target: T2, Myoferlin; assay: Inhibition of MYOF in human PANC1 cells assessed as reduction in VEGFR2 level by Western blot analysis; type: cell-based
PANC-1 [14] = assay: Effect on VEGFR2 expression in MYOF-knockout human PANC1 cells up to 400 nM by Western blot analysis; type: functional, cell-based
PANC-1 [15] = assay: Effect on Twist1 expression in human PANC1 cells up to 400 nM by Western blot analysis; type: functional, cell-based
PANC-1 [16] = assay: Effect on myosin 2A expression in human PANC1 cells up to 400 nM by Western blot analysis; type: functional, cell-based
PANC-1 [17] = assay: Effect on fibronectin expression in MYOF-knockout human PANC1 cells up to 400 nM by Western blot analysis; type: functional, cell-based
Myoferlin [18] = target: T2, Myoferlin; assay: Inhibition of MYOF in human PANC1 cells assessed as increase in EGF-stimulated EGFR phosphorylation by Western blot analysis; type: cell-based
PANC-1 [19] = assay: Antimetastatic activity against human PANC1 cells harboring luciferase reporter gene xenografted in Balb/c nude mouse administered intraperitoneally once daily measured every 10 days by bioluminescence imaging analysis; type: functional, cell-based
PANC-1 [20] = assay: Cytotoxicity against human PANC1 cells assessed as reduction in cell viability measured after 48 hrs by MTS assay; type: cell-based; conditions: PANC-1, 48 h

T2 sequence (Q9NZM1 whole entry): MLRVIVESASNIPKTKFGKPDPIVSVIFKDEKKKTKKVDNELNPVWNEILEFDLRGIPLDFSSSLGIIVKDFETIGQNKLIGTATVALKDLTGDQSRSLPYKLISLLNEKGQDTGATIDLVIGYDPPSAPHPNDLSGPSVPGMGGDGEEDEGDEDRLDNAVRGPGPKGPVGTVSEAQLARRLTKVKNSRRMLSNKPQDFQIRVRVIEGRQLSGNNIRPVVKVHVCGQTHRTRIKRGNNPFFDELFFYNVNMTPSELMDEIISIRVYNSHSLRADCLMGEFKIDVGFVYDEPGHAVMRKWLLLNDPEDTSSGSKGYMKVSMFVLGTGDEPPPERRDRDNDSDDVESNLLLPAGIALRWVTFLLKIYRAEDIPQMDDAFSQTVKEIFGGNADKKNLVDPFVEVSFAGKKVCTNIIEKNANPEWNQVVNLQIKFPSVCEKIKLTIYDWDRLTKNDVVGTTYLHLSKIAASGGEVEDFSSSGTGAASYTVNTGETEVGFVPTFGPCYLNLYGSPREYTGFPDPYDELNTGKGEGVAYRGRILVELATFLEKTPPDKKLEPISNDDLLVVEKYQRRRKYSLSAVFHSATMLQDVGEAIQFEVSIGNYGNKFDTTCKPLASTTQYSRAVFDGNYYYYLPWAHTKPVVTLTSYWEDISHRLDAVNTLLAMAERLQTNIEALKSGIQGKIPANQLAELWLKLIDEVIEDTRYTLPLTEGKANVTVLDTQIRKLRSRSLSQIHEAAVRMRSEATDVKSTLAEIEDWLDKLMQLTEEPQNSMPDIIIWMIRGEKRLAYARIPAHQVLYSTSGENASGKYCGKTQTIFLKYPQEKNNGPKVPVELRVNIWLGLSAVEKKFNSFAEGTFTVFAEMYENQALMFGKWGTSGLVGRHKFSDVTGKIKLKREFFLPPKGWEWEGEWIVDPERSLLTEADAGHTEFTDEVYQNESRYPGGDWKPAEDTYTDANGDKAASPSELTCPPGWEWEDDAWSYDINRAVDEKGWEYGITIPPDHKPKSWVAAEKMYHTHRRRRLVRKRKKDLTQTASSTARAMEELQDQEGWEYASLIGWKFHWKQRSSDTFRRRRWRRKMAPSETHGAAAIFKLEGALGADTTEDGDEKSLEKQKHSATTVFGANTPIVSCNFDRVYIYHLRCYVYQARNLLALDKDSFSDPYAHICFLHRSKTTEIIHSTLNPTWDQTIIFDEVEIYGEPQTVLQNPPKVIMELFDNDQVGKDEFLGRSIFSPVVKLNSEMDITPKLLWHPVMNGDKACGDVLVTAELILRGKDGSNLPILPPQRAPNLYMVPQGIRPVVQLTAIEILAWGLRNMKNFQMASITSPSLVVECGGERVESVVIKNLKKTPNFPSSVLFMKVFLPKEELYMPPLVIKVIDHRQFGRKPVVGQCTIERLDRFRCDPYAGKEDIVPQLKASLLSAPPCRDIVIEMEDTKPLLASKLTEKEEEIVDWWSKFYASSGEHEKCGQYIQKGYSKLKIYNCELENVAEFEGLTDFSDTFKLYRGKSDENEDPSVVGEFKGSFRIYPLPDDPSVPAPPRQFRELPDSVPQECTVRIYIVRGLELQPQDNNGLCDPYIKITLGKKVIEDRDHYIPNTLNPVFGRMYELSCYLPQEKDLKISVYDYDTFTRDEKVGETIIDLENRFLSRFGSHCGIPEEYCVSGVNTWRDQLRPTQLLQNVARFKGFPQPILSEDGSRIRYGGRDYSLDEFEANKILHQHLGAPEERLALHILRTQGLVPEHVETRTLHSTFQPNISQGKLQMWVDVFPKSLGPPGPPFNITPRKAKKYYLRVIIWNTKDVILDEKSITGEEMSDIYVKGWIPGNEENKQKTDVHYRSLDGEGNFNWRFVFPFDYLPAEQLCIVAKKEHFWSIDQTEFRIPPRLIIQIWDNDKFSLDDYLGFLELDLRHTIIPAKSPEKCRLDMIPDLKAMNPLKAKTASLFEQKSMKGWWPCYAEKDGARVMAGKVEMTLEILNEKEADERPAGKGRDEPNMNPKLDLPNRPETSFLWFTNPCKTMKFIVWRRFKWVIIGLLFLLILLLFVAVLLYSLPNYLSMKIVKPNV
Cytochrome P450 3A4, sequence (P08684 whole entry): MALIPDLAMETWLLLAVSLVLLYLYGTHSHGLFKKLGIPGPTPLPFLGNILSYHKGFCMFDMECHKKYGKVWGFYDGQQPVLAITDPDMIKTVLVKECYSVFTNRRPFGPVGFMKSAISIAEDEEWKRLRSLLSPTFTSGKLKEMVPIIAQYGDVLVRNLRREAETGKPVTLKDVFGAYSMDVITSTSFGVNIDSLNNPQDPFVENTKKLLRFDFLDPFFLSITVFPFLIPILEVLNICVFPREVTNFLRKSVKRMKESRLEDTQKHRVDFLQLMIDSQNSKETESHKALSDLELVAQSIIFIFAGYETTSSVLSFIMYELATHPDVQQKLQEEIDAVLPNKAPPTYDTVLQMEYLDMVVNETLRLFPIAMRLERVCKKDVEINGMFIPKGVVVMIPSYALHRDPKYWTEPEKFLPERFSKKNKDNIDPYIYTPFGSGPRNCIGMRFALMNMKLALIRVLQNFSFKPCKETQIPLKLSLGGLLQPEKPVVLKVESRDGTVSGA
Cytochrome P450 2D6, sequence (P10635 whole entry): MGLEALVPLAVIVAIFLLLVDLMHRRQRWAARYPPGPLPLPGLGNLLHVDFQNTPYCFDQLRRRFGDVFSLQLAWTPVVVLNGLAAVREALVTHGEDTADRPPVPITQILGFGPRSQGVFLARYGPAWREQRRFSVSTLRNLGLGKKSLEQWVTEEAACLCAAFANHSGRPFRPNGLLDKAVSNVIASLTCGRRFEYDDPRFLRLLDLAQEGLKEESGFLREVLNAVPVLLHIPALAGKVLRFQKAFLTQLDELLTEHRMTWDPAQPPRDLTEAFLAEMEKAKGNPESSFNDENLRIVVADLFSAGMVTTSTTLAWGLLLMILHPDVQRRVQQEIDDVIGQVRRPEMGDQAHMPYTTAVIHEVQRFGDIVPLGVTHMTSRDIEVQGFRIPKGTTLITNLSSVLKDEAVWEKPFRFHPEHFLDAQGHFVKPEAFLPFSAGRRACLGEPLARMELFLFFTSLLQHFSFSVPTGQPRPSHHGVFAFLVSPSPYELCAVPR

In the case of `CCc1nc(-c2ncc(OC)cn2)n(-c2cccc(C(=O)NCCCCc3ccccc3)c2)n1`, the Activity [1] was “Non-Toxic”, the pIC50 (Cytochrome P450 1A2) was under 4.30 and the pIC50 (Cytochrome P450 3A4) was under 4.30. For the same compound, the pIC50 (Cytochrome P450 2D6) was 4.30, the pIC50 (MCF-10A) was 4.56 and the inhibition (Myoferlin [2]) was “Dose-dependent effect”. For the same compound, the pIC50 (Cytochrome P450 2B6) was under 4.30, the survival at 25 mg/kg/day (PANC-1 [3]) was 75% and the Activity [4] was “Non-Toxic”. The “fold change (FC)” value (PANC-1 [5]) was 5, the pIC50 (MIA PaCa-2) was 5.81 and the pIC50 (PANC-1 [6]) was 6.92. For the same compound, the Activity (PANC-1 [7]) was “inactive”, the inhibition (Myoferlin [8]) was “Active” and the Activity [9] was “Non-Toxic”. The Activity (PANC-1 [10]) was “Dose-dependent effect”, the pIC50 (PANC-1 [10]; PANC-1, 18 h) was 6.96 and the Activity (PANC-1 [11]) was “inactive”. The Activity (PANC-1 [12]) was “inactive”, the inhibition (Myoferlin [13]) was “Dose-dependent effect” and the Activity (PANC-1 [14]) was “inactive”. The Activity (PANC-1 [15]) was “inactive”, the Activity (PANC-1 [16]) was “inactive” and the Activity (PANC-1 [17]) was “inactive”. The inhibition (Myoferlin [18]) was “Dose-dependent effect”, the Activity (PANC-1 [19]) was “Dose-dependent effect” and the pIC50 (PANC-1 [20]) was 6.08.
